According to patent US9186361B2, “Compounds and compositions for the treatment of parasitic diseases” (Novartis AG, priority 2013, dated 2015):

How the values were obtained:
[1] = system: Leishmania donovani axenic amastigote parasites; assay: Assay for Leishmania proliferation in vitro (axenic amastigotes, Cell TiterGlo); type: cell-based; settings: 48 h, 2 day incubation, read-out: L. donovani amastigotes EC50
Method in brief: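 L. donovani axenic amastigotes (9600 per well) are cultured with compound for 2 days at 37° C, 5% CO2 in RPMI-based medium at pH 5.5. Viability is read by CellTiterGlo luminescence, and EC50 is calculated.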

[2] = system: Trypanosoma cruzi amastigotes cultured in 3T3 fibroblast cells; assay: Assay for proliferation of kinetoplastid parasite Trypanosoma cruzi (beta-galactosidase/CPRG readout); type: cell-based; settings: NIH3T3, 144 h, Tulahuen strain in 3T3 cells, 6 day incubation, read-out: T cruzi EC50
[3] = system: L. donovani HU3 strain in mouse peritoneal macrophages; assay: Proliferation of L. donovani in mouse peritoneal macrophages (SybrGreen, high-content imaging); type: cell-based; settings: Leishmania donovani, Peritoneal macrophage, 120 h; infected mouse peritoneal macrophages, 5 days; read-out: L. donavani Macrophage EC50
Method in brief: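 Peritoneal macrophages from uninfected BALB/c mice were infected for 24 h with spleen-derived amastigotes (9-11 week infected mice), then exposed to compound for 5 days at 37° C. Fixed cells stained with SybrGreen and parasite nuclei counted by high-content imaging; EC50 calculated from inhibition.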

[4] = system: Trypanosoma brucei Lister 427 strain; assay: Assay for proliferation of kinetoplastid parasite Trypanosoma brucei (Cell Titer Glo); type: cell-based; settings: bloodstream form, 48 hours, read-out: T. brucei EC50
Description: The proliferation is quantified by the addition of Cell Titer Glo (Promega®) a luminescent cell viability assay that measures the number of viable cells in culture based on the quantification of cellular ATP amount, which is an indicator of metabolically active cells. The following assay illustrates the invention without in any way limiting the scope of the invention. This parasite proliferation assay measures the increase in parasite growth using an assay that measures ATP activity, Cell Titer Glo®.
Trypanosoma brucei Lister 427 strain is grown in HMI-9 Trypanosome media for T. brucei bloodstream form. 30 μl of HMI-9 media is dispensed into 384 well assay plates. 200 nL of compounds of the invention (in DMSO), including anti-trypanosome controls (Pentamidine and suramin), are then transferred into the assay plates, as well as DMSO alone to serve as a negative control for inhibition. Then 25 μl of a suspension of T. brucei culture in HMI-9 media is dispensed into the assay plates. The final concentration of parasites in culture corresponds to 1.7% of 0.5 uM ATP activity with Cell Titer Glo® in HMI-9 media. The plates are placed in a 37° C. incubator for 48 hours in an atmospheric environment containing 5% CO2. 40 μl of Cell Titer Glo® is dispensed into the plates. The plates are then read for luminescence. The percentage inhibition of 50%, EC50, is calculated for each compound.

[5] = cited from earlier work

Compound	EC50 [1] [µM]	EC50 [2] [µM]	EC50 [3] [µM]	EC50 [4] [µM]	reactive encephalopathy cases that result in death ([5]; of the encephalopathy cases)	patients who developed reactive encephalopathy ([5]; patients injected with the drug)
CC1(C)CC(C(=O)Nc2cnc3nc(-c4cc(NC(=O)c5ccco5)ccc4Cl)[nH]c3c2)C1 [Example 56, N-(4-chloro-3-{6-[(3,3-dimethylcyclobutane)amido]-1H-imidazo[4,5-b]pyridin-2-yl}phenyl)furan-2-carboxamide]	2.96	1.23	2.23	0.346		
O=C(Nc1ccc(Cl)c(-c2nc3ncc(NC(=O)C4CC(F)(F)C4)cc3[nH]2)c1)c1ccco1 [Example 57, N-(4-chloro-3-{6-[(3,3-difluorocyclobutane)amido]-1H-imidazo[4,5-b]pyridin-2-yl}phenyl)furan-2-carboxamide]	8.2	7.4	12.8	0.5		
CC(C)(C)OC(=O)NCC1(C(=O)Nc2cnc3nc(-c4cc(NC(=O)c5ccco5)ccc4Cl)[nH]c3c2)CC1 [Example 63, tert-butyl N-{[1-({2-[2-chloro-5-(furan-2-amido)phenyl]-1H-imidazo[4,5-b]pyridin-6-yl}carbamoyl)cyclopropyl]methyl}carbamate]	0.46	0.248	0.53	0.044		
O=C(Nc1ccc(Cl)c(-c2nc3ncc(NC(=O)C4CC4)cc3[nH]2)c1)c1ccc(F)o1 [Example 65, N-(4-chloro-3-{6-cyclopropaneamido-1H-imidazo[4,5-b]pyridin-2-yl}phenyl)-5-fluorofuran-2-carboxamide]	1.47	1.02	0.57	0.023		
O=C(CCCN1CCOCC1)Nc1cnc2nc(-c3cc(NC(=O)c4ccc(F)o4)ccc3Cl)[nH]c2c1 [Example 66, N-(4-chloro-3-{6-[4-(morpholin-4-yl)butanamido]-1H-imidazo[4,5-b]pyridin-2-yl}phenyl)-5-fluorofuran-2-carboxamide]	> 25	> 20	39.2	2.3		
CC(C)(C)OC(=O)NCCC(=O)Nc1cnc2nc(-c3cc(NC(=O)c4ccc(F)o4)ccc3Cl)[nH]c2c1 [Example 68, tert-butyl N-[2-({2-[2-chloro-5-(5-fluorofuran-2-amido)phenyl]-1H-imidazo[4,5-b]pyridin-6-yl}carbamoyl)ethyl]carbamate]	6.2	7.6	7	0.411		
N#CC1(C(=O)Nc2cnc3nc(-c4cc(NC(=O)c5ccc(F)o5)ccc4Cl)[nH]c3c2)CC1 [Example 70, N-(4-chloro-3-{6-[(1-cyanocyclopropane)amido]-1H-imidazo[4,5-b]pyridin-2-yl}phenyl)-5-fluorofuran-2-carboxamide]	1.2	0.72	0.53	0.032		
O=C(Nc1ccc(Cl)c(-c2nc3ncc(NC(=O)C4(C(F)(F)F)CCC4)cc3[nH]2)c1)c1ccc(F)o1 [Example 71, N-[4-chloro-3-(6-{[1-(trifluoromethyl)cyclobutane]amido}-1H-imidazo[4,5-b]pyridin-2-yl)phenyl]-5-fluorofuran-2-carboxamide]	1.4	0.153	0.263	0.03		
O=C(CCN1CCOCC1)Nc1cnc2nc(-c3cc(NC(=O)c4ccc(F)o4)ccc3Cl)[nH]c2c1 [Example 72, N-(4-chloro-3-{6-[3-(morpholin-4-yl)propanamido]-1H-imidazo[4,5-b]pyridin-2-yl}phenyl)-5-fluorofuran-2-carboxamide]	> 25	> 20	34.1	5.36		
CC(C)OC(=O)Nc1cnc2nc(-c3cccc(NC(=O)c4ccc(F)o4)c3)[nH]c2c1 [Example 78, propan-2-yl N-{2-[3-(5-fluorofuran-2-amido)phenyl]-1H-imidazo[4,5-b]pyridin-6-yl}carbamate]	4.7	1.44	1.39	0.2		
Nc1nc(N)nc(Nc2ccc([As]3SCC(CO)S3)cc2)n1 (stereo not drawn) [Melarsoprol]					10-70%	3-10%
